A short description of this assay: In vitro MRI relaxivity of gold/Gd nanoparticles and clinical contrast agents. An excerpt:
In vitro MRI of Gadolinium Nanoparticles and Polymer Modified Gadolinium Nanoparticles. In order to provide information about the clinical imaging viability of the polymer modified gold/Gd nanoparticles as a positive contrast agent, in vitro MRI was employed to determine relaxation properties of the unmodified and polymer modified gold/Gd nanoparticles. Table 1 compares the MRI longitudinal and transverse relaxivities, r1 and r2, respectively, of PNIPAM-modified gold/Gd nanoparticles and gold/Gd unmodified nanoparticles to the clinically employed contrasts agents, gadopentetate dimeglumine (Magnevist®) and gadobenate dimeglumine (Multihance®). […] By taking advantage of these properties, novel theragnostic polymer-modified gold/Gd nanoparticles could be produced and exploited as contrast agents for conventional T1 MR imaging.

For the compound `CNC[C@H](O)[C@@H](O)[C@H](O)[C@H](O)CO.CNC[C@H](O)[C@@H](O)[C@H](O)[C@H](O)CO.O=C([O-])CN(CCN(CC(=O)[O-])CC(=O)O)CCN(CC(=O)[O-])CC(=O)O.[Gd+3]` [Magnevist ®, gadopentetate dimeglumine], the r1 (MRI longitudinal relaxivity) was determined as 6.95 mM⁻¹ s⁻¹.

Take `CNC[C@H](O)[C@@H](O)[C@H](O)[C@H](O)CO.CNC[C@H](O)[C@@H](O)[C@H](O)[C@H](O)CO.O=C([O-])CN(CCN(CC(=O)[O-])CC(=O)O)CCN(CC(=O)O)C(COCc1ccccc1)C(=O)[O-].[Gd+3]` (centres unmarked) [Multihance ®, gadobenate dimeglumine]: the r1 (MRI longitudinal relaxivity) is 17.7 mM⁻¹ s⁻¹.
